Data published in the supplement of paper PMC10307832.

Assays:
Assay in all cases: relative viability (nuclei count vs DMSO), 5 days (fraction); higher = more cells survive
Sorafenib + Linsitinib = compound: CNC(=O)c1cc(Oc2ccc(NC(=O)Nc3ccc(Cl)c(C(F)(F)F)c3)cc2)ccn1 [Sorafenib] + C[C@]1(O)C[C@@H](c2nc(-c3ccc4ccc(-c5ccccc5)nc4c3)c3c(N)nccn32)C1 [Linsitinib] (partner 1 µM)
How it was run: (§1)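 A single step with final 0.05% Triton X-100, 1% formaldehyde and 1 ug/ml Hoechst fixed the cells and stained nuclei 5 days after treatment. Lung cancer cell lines in 1536-well plates had been treated by pin tool the day after seeding with one drug alone or a fixed anchor-drug dose plus five library-drug doses (not always all listed) in √10 steps, and nuclei were counted on 4× images. Relative viability is the ratio of nuclei in treated wells to nuclei in vehicle wells, taken as the median of duplicate plates.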

Sorafenib + AZD7762 = compound: CNC(=O)c1cc(Oc2ccc(NC(=O)Nc3ccc(Cl)c(C(F)(F)F)c3)cc2)ccn1 [Sorafenib] + NC(=O)Nc1cc(-c2cccc(F)c2)sc1C(=O)N[C@H]1CCCNC1 [AZD7762] (partner 0.2 µM)
How it was run: as §1

Sorafenib + Olaparib = compound: CNC(=O)c1cc(Oc2ccc(NC(=O)Nc3ccc(Cl)c(C(F)(F)F)c3)cc2)ccn1 [Sorafenib] + O=C(c1cc(Cc2n[nH]c(=O)c3ccccc23)ccc1F)N1CCN(C(=O)C2CC2)CC1 [Olaparib] (partner 8 µM)
How it was run: as §1

Sorafenib + Foretinib = compound: CNC(=O)c1cc(Oc2ccc(NC(=O)Nc3ccc(Cl)c(C(F)(F)F)c3)cc2)ccn1 [Sorafenib] + COc1cc2c(Oc3ccc(NC(=O)C4(C(=O)Nc5ccc(F)cc5)CC4)cc3F)ccnc2cc1OCCCN1CCOCC1 [Foretinib] (partner 0.25 µM)
How it was run: as §1

Sorafenib + Tozasertib = compound: CNC(=O)c1cc(Oc2ccc(NC(=O)Nc3ccc(Cl)c(C(F)(F)F)c3)cc2)ccn1 [Sorafenib] + Cc1cc(Nc2cc(N3CCN(C)CC3)nc(Sc3ccc(NC(=O)C4CC4)cc3)n2)n[nH]1 [Tozasertib] (partner 0.1 µM)
How it was run: as §1

Cell Line | relative viability (Sorafenib + Linsitinib; first compound 0.08 µM) | relative viability (Sorafenib + Linsitinib; first compound 0.253 µM) | relative viability (Sorafenib + Linsitinib; first compound 2.53 µM) | relative viability (Sorafenib + Linsitinib; first compound 8 µM) | relative viability (Sorafenib + AZD7762; first compound 0.08 µM) | relative viability (Sorafenib + AZD7762; first compound 0.253 µM) | relative viability (Sorafenib + AZD7762; first compound 2.53 µM) | relative viability (Sorafenib + AZD7762; first compound 8 µM) | relative viability (Sorafenib + Olaparib; first compound 0.08 µM) | relative viability (Sorafenib + Olaparib; first compound 0.253 µM) | relative viability (Sorafenib + Olaparib; first compound 2.53 µM) | relative viability (Sorafenib + Olaparib; first compound 8 µM) | relative viability (Sorafenib + Foretinib; first compound 0.08 µM) | relative viability (Sorafenib + Foretinib; first compound 0.253 µM) | relative viability (Sorafenib + Foretinib; first compound 2.53 µM) | relative viability (Sorafenib + Foretinib; first compound 8 µM) | relative viability (Sorafenib + Tozasertib; first compound 0.08 µM) | relative viability (Sorafenib + Tozasertib; first compound 0.253 µM) | relative viability (Sorafenib + Tozasertib; first compound 2.53 µM) | relative viability (Sorafenib + Tozasertib; first compound 8 µM)
NCI-H1792 | 0.569 | 0.511 | 0.478 | 0.546 | 0.674 | 0.483 | 0.442 | 0.425 | 0.645 | 0.416 | 0.347 | 0.179 | – | – | – | – | – | – | – | –
NCI-H2009 | 1.15 | 1.11 | 1.05 | 1.11 | – | – | – | – | 0.621 | 0.533 | 0.524 | 0.556 | 1.27 | 1.18 | 1.09 | 0.916 | 0.775 | 0.666 | 0.723 | 0.498
NCI-H2023 | 0.733 | 0.735 | 0.669 | 0.497 | – | – | – | – | 0.45 | 0.477 | 0.465 | 0.115 | 1.18 | 0.795 | 0.972 | 0.591 | 0.282 | 0.278 | 0.229 | 0.142
NCI-H2170 | – | – | – | – | – | 0.816 | 0.824 | 0.819 | 0.63 | 0.577 | 0.556 | 0.365 | 1.02 | 0.994 | 0.986 | 0.967 | 0.767 | 0.714 | 0.726 | 0.694
NCI-H2228 | 0.682 | 0.551 | 0.669 | 0.596 | – | – | – | – | 0.868 | 0.46 | 0.532 | 0.294 | 0.993 | 0.714 | 0.819 | 0.543 | 0.273 | 0.283 | 0.18 | 0.182
SK-LU-1 | 1.03 | – | 0.932 | 0.345 | – | – | – | – | 0.534 | 0.361 | 0.549 | 0.317 | 0.857 | 0.632 | 0.761 | 0.692 | 0.346 | 0.347 | 0.325 | 0.211
SK-MES-1 | 1.1 | 1.08 | 1 | 1.03 | – | – | – | – | 0.664 | 0.551 | 0.648 | 0.258 | 1.07 | 0.896 | 0.903 | 0.818 | 0.823 | 0.833 | 0.714 | 0.439
SW 900 | – | – | – | – | 0.675 | 0.571 | 0.571 | 0.377 | 0.764 | 0.88 | 0.909 | 0.34 | 1.2 | 0.888 | 0.782 | 0.604 | 0.718 | 0.467 | 0.402 | 0.316
SW 1573 | 0.805 | 0.786 | 0.79 | 0.378 | – | – | – | – | 0.47 | 0.518 | 0.437 | 0.132 | 1.09 | 0.791 | 0.995 | 0.777 | 0.194 | 0.205 | 0.174 | 0.119
UMC-11 | 0.991 | 0.989 | 0.945 | 0.687 | – | – | – | – | 0.39 | 0.375 | 0.38 | 0.15 | 0.968 | 1.02 | 0.941 | 0.58 | 0.209 | 0.195 | 0.202 | 0.184
